Test results as given in patent publication US10561703B2, “Method of modulating sex hormone levels using a sex hormone secretion modulator” (GEMVAX & KAEL CO., LTD., priority 2013, dated 2020).

System: FSH
Experiment: FSH level in blood (serum CLIA) after repeated sc PEP-1
Type: in vivo, SD rats
Experimental: PEP-1 (peptide of SEQ ID NO: 1), lyophilized white powder, obtained according to the method mentioned in example 1 was dissolved in 0.9% of saline, considering the correction factor of PEP-1 (purity: 94.13%, content: 92.36%, correction factor: 1.15). 50 mg/mL stock solution was further diluted into 20 mg/mL, 2 mg/mL, and 1 mg/mL with 0.9% saline, and stored at 4° C. for a week until the use.
The purpose of this example is to confirm the change of sexual hormones in blood from SD rats with 7 days repeated daily administration of SEQ ID NO: 1 peptide, PEP-1. This experiment followed the Ethics Regulation of Animal Test by KAMSI Inc. (Korea Animal Medical Science Institute). In addition, this experiment, Non-GLP experiment, referred to the MFDS (Ministry of Food and Drug Safety) notification; Agent 2013-40 (5th April 2013), Principles of Good Laboratory Practice (1997).
SPF Rats (Crlj:CD(SD)) were purchased from ORIENTBio Inc. (Mokdong-ri, Buk-myeon, Gapyeong-gun, Gyeonggi-do, Republic of Korea). 75 male (6.5 weeks old and 190˜210 g) and 75 female (6.5 weeks old and 160˜180 g) rats were monitored for 4 days, and 64 of male and female rats (each) were selected for the experiment. Raising condition is as follows; 23±3° C. of temperature, […] of relative humidity, 10˜20 times/hr of number of air changes, 12 hours (8 a.m.˜8 p.m.) of lighting with 150˜300 Lux of intensity.
64 male and female […] (mentioned above) were divided into 8 groups. Administration regimen, for example, drugs, routes, dosages, and volumes were as follows:
The detailed administration regimen is as follows; once a day, twice a day and twice a week in each experimental group. Injection initiated at 10 a.m. every day, and each rat was injected at one minute intervals. Rats in Group 9, 10, 13 and 14 were injected twice a week. Administration of high dose test agent preceded that of low dose. The volume of injection was calculated using recently measured weight of rats, and it was 5 mL/kg. Subcutaneous injection was performed as follows; assistant tilted the back of rat upward, and experimenter sterilized the back of rat with 70% alcohol, followed by subcutaneous injection of test agent with 26 G syringe.
1.4 mL of blood sample (0.7 mL of serum) was collected after measurement of weight (Day 0). Next day (1 Day), 1.4 mL of blood sample (0.7 mL of serum) was collected twice after injection of test agent (4 hrs and 8 hrs after administration of test agent). For next 6 days (Day 2˜Day 7), 1.4 mL of blood was extracted once everyday (4 hours after injection of test agent). Dose and volume of test agent of each group followed the Table 3, and injection time zone was same every day. Blood was extracted from the jugular vein, and left at room temperature for 30 minutes. Serum was separated using centrifugation (10,000 rpm for 5 minutes), and stored at −70±5° C. in Deep freezer until the use. Blood extraction from each subject was done in the same time zone every day.
A CLIA (Chemi-Luminescence Immune Assay) Kit was used to analyze Testosterone, Estradiol E2, FSH (Follicle stimulating hormone), and LH (Luteinizing hormone). Analysis was completed within 48 hrs after blood extraction (Laboratory Medicine Department, Chung-Ang University Hospital), and detailed method is as follows; One-way ANOVA was used to verify the comparison between the vehicle and PEP-1, and between different doses of PEP-1. For further analysis, Duncan test was used as parametric test and Dunnett's test as non-parametric test. p<0.05 represents the statistical significance, and all statistical analysis was carried out with SPSS 10.1.
FSH was analyzed using the samples prepared from example 2. 100 μL of serum was used for analysis. Fundamentals of analysis is Two-site sandwich immunoassay based on direct chemi-luminescent. As mentioned in example 2, CLIA (Chemi-luminescence immune assay) Kit was used, following the manufacture's protocol.

EARPALLTSRLRFIPK (listed as Homo sapiens) [PEP-1, hormone secretion modulator / GnRH analog]
FSH level in blood (G3 Male 5 mg/kg sc 1/day x7, 7 days): 0.10 mIU/mL
FSH level in blood (G4 Female 5 mg/kg sc 1/day x7, 4 hr): 0.17 mIU/mL
FSH level in blood (G4 Female 5 mg/kg sc 1/day x7, 8 hr): 0.30 mIU/mL
FSH level in blood (G4 Female 5 mg/kg sc 1/day x7, 2 days): 0.32 mIU/mL
FSH level in blood (G4 Female 5 mg/kg sc 1/day x7, 3 days): 0.12 mIU/mL
FSH level in blood (G4 Female 5 mg/kg sc 1/day x7, 4 days): 0.17 mIU/mL
FSH level in blood (G4 Female 5 mg/kg sc 1/day x7, 5 days): 0.21 mIU/mL
FSH level in blood (G4 Female 5 mg/kg sc 1/day x7, 6 days): 0.13 mIU/mL
FSH level in blood (G4 Female 5 mg/kg sc 1/day x7, 7 days): 0.17 mIU/mL
FSH level in blood (G4 Female 5 mg/kg sc 1/day x7, pre): 0.20 mIU/mL
FSH level in blood (G6 Female 10 mg/kg sc 1/day x7, 4 hr): 0.31 mIU/mL
FSH level in blood (G6 Female 10 mg/kg sc 1/day x7, 8 hr): 0.48 mIU/mL
FSH level in blood (G6 Female 10 mg/kg sc 1/day x7, 2 days): 0.31 mIU/mL
FSH level in blood (G6 Female 10 mg/kg sc 1/day x7, 3 days): 0.20 mIU/mL
FSH level in blood (G6 Female 10 mg/kg sc 1/day x7, 4 days): 0.17 mIU/mL
FSH level in blood (G6 Female 10 mg/kg sc 1/day x7, 5 days): 0.19 mIU/mL
FSH level in blood (G6 Female 10 mg/kg sc 1/day x7, 6 days): 0.1 mIU/mL
FSH level in blood (G6 Female 10 mg/kg sc 1/day x7, 7 days): 0.16 mIU/mL
FSH level in blood (G6 Female 10 mg/kg sc 1/day x7, pre): 0.31 mIU/mL
FSH level in blood (G8 Female 10 mg/kg sc 2/day x4, 4 hr): 0.26 mIU/mL
FSH level in blood (G8 Female 10 mg/kg sc 2/day x4, 8 hr): 0.21 mIU/mL
FSH level in blood (G8 Female 10 mg/kg sc 2/day x4, 2 days): 0.28 mIU/mL
FSH level in blood (G8 Female 10 mg/kg sc 2/day x4, 3 days): 0.18 mIU/mL
FSH level in blood (G8 Female 10 mg/kg sc 2/day x4, 4 days): 0.13 mIU/mL
FSH level in blood (G8 Female 10 mg/kg sc 2/day x4, 5 days): 0.16 mIU/mL
FSH level in blood (G8 Female 10 mg/kg sc 2/day x4, 6 days): 0.15 mIU/mL
FSH level in blood (G8 Female 10 mg/kg sc 2/day x4, 7 days): 0.21 mIU/mL
FSH level in blood (G8 Female 10 mg/kg sc 2/day x4, pre): 0.26 mIU/mL
FSH level in blood (G9 Male 10 mg/kg sc 2/week x2 (days 1,7), 4 hr): 0.29 mIU/mL
FSH level in blood (G9 Male 10 mg/kg sc 2/week x2 (days 1,7), 8 hr): 0.28 mIU/mL
FSH level in blood (G9 Male 10 mg/kg sc 2/week x2 (days 1,7), 2 days): 0.22 mIU/mL
FSH level in blood (G9 Male 10 mg/kg sc 2/week x2 (days 1,7), 3 days): 0.17 mIU/mL
FSH level in blood (G9 Male 10 mg/kg sc 2/week x2 (days 1,7), 4 days): 0.37 mIU/mL
FSH level in blood (G9 Male 10 mg/kg sc 2/week x2 (days 1,7), 5 days): 0.25 mIU/mL
FSH level in blood (G9 Male 10 mg/kg sc 2/week x2 (days 1,7), 6 days): 0.14 mIU/mL
FSH level in blood (G9 Male 10 mg/kg sc 2/week x2 (days 1,7), 7 days): 0.15 mIU/mL
FSH level in blood (G9 Male 10 mg/kg sc 2/week x2 (days 1,7), pre): 0.28 mIU/mL
FSH level in blood (G10 Female 10 mg/kg sc 2/week x2 (days 1,7), 4 hr): 0.26 mIU/mL
FSH level in blood (G10 Female 10 mg/kg sc 2/week x2 (days 1,7), 8 hr): 0.44 mIU/mL
FSH level in blood (G10 Female 10 mg/kg sc 2/week x2 (days 1,7), 2 days): 0.37 mIU/mL
FSH level in blood (G10 Female 10 mg/kg sc 2/week x2 (days 1,7), 3 days): 0.21 mIU/mL
FSH level in blood (G10 Female 10 mg/kg sc 2/week x2 (days 1,7), 4 days): 0.18 mIU/mL
FSH level in blood (G10 Female 10 mg/kg sc 2/week x2 (days 1,7), 5 days): 0.32 mIU/mL
FSH level in blood (G10 Female 10 mg/kg sc 2/week x2 (days 1,7), 6 days): 0.23 mIU/mL
FSH level in blood (G10 Female 10 mg/kg sc 2/week x2 (days 1,7), 7 days): 0.28 mIU/mL
FSH level in blood (G10 Female 10 mg/kg sc 2/week x2 (days 1,7), pre): 0.31 mIU/mL
FSH level in blood (G11 Male 100 mg/kg sc 1/day x7, 4 hr): 0.27 mIU/mL
FSH level in blood (G11 Male 100 mg/kg sc 1/day x7, 8 hr): 0.36 mIU/mL
FSH level in blood (G11 Male 100 mg/kg sc 1/day x7, 2 days): 0.17 mIU/mL
FSH level in blood (G11 Male 100 mg/kg sc 1/day x7, 3 days): 0.14 mIU/mL
